PubChem BioAssay (NCI)
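A five-concentration, 48-hour dose response in 96-well plates underlies each endpoint, interpolated linearly between surrounding concentrations. GI50: concentration for 50% inhibition of growth. TGI marks complete inhibition of growth.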

Tests used:
Experiment in all cases: DTP human tumour cell line panel, 48 h
[1] = system: K-562 leukemia
[2] = system: M14 melanoma
[3] = system: CAKI-1 renal
[4] = system: MDA-MB-231 breast
[5] = system: OVCAR-4 ovarian
[6] = system: HOP-62 NSCLC
[7] = system: HCT-116 colon
[8] = system: A498 renal
[9] = system: SF-539 CNS
[10] = system: HCC-2998 colon
[11] = system: HS 578T breast
[12] = system: SF-268 CNS
[13] = system: KM12 colon
[14] = system: OVCAR-3 ovarian
[15] = system: OVCAR-8 ovarian
[16] = system: SK-OV-3 ovarian
[17] = system: SK-MEL-5 melanoma
[18] = system: MALME-3M melanoma
[19] = system: UACC-257 melanoma
[20] = system: 786-0 renal
[21] = system: SNB-75 CNS
[22] = system: UACC-62 melanoma
[23] = system: HCT-15 colon
[24] = system: COLO 205 colon
[25] = system: SK-MEL-2 melanoma
[26] = system: SR leukemia
[27] = system: OVCAR-5 ovarian
[28] = system: NCI-H23 lung
[29] = system: MOLT-4 leukemia
[30] = system: LOX IMVI melanoma
[31] = system: IGROV1 ovarian
[32] = system: EKVX NSCLC
[33] = system: MDA-MB-435
[34] = system: RPMI-8226 leukemia
[35] = system: A549 NSCLC
[36] = system: HOP-92 NSCLC
[37] = system: T-47D breast
[38] = system: DU-145 prostate
[39] = system: SK-MEL-28 melanoma
[40] = system: HT29 colon
[41] = system: NCI-H460 lung
[42] = system: SN12C renal
[43] = system: RXF 393 renal
[44] = system: NCI/ADR-RES ovarian
[45] = system: CCRF-CEM leukemia
[46] = system: MCF7 breast
[47] = system: PC-3 prostate
[48] = system: UO-31 renal
[49] = system: TK-10 renal
[50] = system: NCI-H522 lung
[51] = system: SNB-19 CNS
[52] = system: ACHN renal
[53] = system: NCI-H226 lung
[54] = system: U251 CNS
[55] = system: SW-620 colon
[56] = system: SF-295 CNS
[57] = system: BT-549 breast
[58] = system: HL-60(TB) leukemia

For CC(=O)c1ccc(Nc2nc(Nc3ccc(F)cc3)nc(Nc3ccc(F)cc3)n2)cc1, the GI50 [1] was 5.7 µM, the TGI [1] was > 100 µM and the GI50 [2] was 6.52 µM. The TGI [2] was > 100 µM, the GI50 [3] was 9.02 µM and the TGI [3] was 27.7 µM. It also gave a GI50 [4] of 6.81 µM, a TGI [4] of 42.8 µM and a GI50 [5] of 10.9 µM. The TGI [5] was 41.3 µM, the GI50 [6] was 13.7 µM and the TGI [6] was 32.5 µM. For the same compound, the GI50 [7] was 12.7 µM, the TGI [7] was > 100 µM and the GI50 [8] was 4.69 µM. The TGI [8] was 18.3 µM, the GI50 [9] was 3.07 µM and the TGI [9] was 12.1 µM. The GI50 [10] was 9.95 µM, the TGI [10] was > 100 µM and the GI50 [11] was 4.85 µM. The TGI [11] was 20.2 µM, the GI50 [12] was 10.8 µM and the TGI [12] was 46.6 µM. It also gave a GI50 [13] of 8.67 µM, a TGI [13] of 97.9 µM and a GI50 [14] of 10.6 µM. It also gave a TGI [14] of 33 µM, a GI50 [15] of 6.91 µM and a TGI [15] of 24.8 µM. The GI50 [16] was 10.5 µM, the TGI [16] was 83.6 µM and the GI50 [17] was 7.07 µM. The TGI [17] was 35.8 µM, the GI50 [18] was 6.73 µM and the TGI [18] was 42.1 µM. The GI50 [19] was 14.3 µM, the TGI [19] was > 100 µM and the GI50 [20] was 14.1 µM. It also gave a TGI [20] of 32.5 µM, a GI50 [21] of 5.62 µM and a TGI [21] of 29.5 µM. The GI50 [22] was 28.9 µM, the TGI [22] was > 100 µM and the GI50 [23] was 8.49 µM. For the same compound, the TGI [23] was > 100 µM, the GI50 [24] was 5.61 µM and the TGI [24] was 43.7 µM. The GI50 [25] was 10.1 µM, the TGI [25] was 40.3 µM and the GI50 [26] was 4.24 µM. For the same compound, the TGI [26] was > 100 µM, the GI50 [27] was 35.1 µM and the TGI [27] was > 100 µM. For the same compound, the GI50 [28] was 35.7 µM, the TGI [28] was > 100 µM and the GI50 [29] was 4.39 µM. The TGI [29] was > 100 µM, the GI50 [30] was 18.2 µM and the TGI [30] was > 100 µM. For the same compound, the GI50 [31] was 9.49 µM, the TGI [31] was 28.2 µM and the GI50 [32] was 12.3 µM. The TGI [32] was 57.8 µM, the GI50 [33] was 3.24 µM and the TGI [33] was > 100 µM. For the same compound, the GI50 [34] was 94.9 µM, the TGI [34] was > 100 µM and the GI50 [35] was 5.81 µM. The TGI [35] was 32.5 µM, the GI50 [36] was 5.64 µM and the TGI [36] was 31.5 µM. For the same compound, the GI50 [37] was 4.77 µM, the TGI [37] was 65.2 µM and the GI50 [38] was 14.8 µM. It also gave a TGI [38] of 55.7 µM, a GI50 [39] of 11 µM and a TGI [39] of 45 µM. The GI50 [40] was 5.79 µM, the TGI [40] was > 100 µM and the GI50 [41] was 8.65 µM. For the same compound, the TGI [41] was > 100 µM, the GI50 [42] was 23.6 µM and the TGI [42] was > 100 µM. The GI50 [43] was 3.15 µM, the TGI [43] was 11.5 µM and the GI50 [44] was 5.5 µM. For the same compound, the TGI [44] was 54.1 µM, the GI50 [45] was 3.77 µM and the TGI [45] was > 100 µM. It also gave a GI50 [46] of 4.12 µM, a TGI [46] of 61.2 µM and a GI50 [47] of 8.89 µM. The TGI [47] was > 100 µM, the GI50 [48] was 7.68 µM and the TGI [48] was 24.3 µM. The GI50 [49] was 15.6 µM, the TGI [49] was 42.2 µM and the GI50 [50] was 10.4 µM. For the same compound, the TGI [50] was 41.3 µM, the GI50 [51] was 16.4 µM and the TGI [51] was 53.8 µM. The GI50 [52] was 14.7 µM, the TGI [52] was 45.1 µM and the GI50 [53] was 20.7 µM. The TGI [53] was > 100 µM, the GI50 [54] was 11.7 µM and the TGI [54] was 30.1 µM. It also gave a GI50 [55] of 13.4 µM, a TGI [55] of 88 µM and a GI50 [56] of 7.13 µM. It also gave a TGI [56] of 24.2 µM, a GI50 [57] of 10.1 µM and a TGI [57] of 31.5 µM.
CC(=O)Nc1ccc(-c2nc3ccccc3s2)cc1C was tested, and the TGI [2] was > 100 µM, the TGI [3] was 59 µM and the TGI [4] was > 100 µM. For the same compound, the TGI [5] was > 100 µM, the TGI [6] was > 100 µM and the TGI [7] was > 100 µM. The TGI [8] was 21.6 µM, the TGI [9] was > 100 µM and the TGI [10] was > 100 µM. The TGI [11] was > 100 µM, the TGI [58] was > 100 µM and the TGI [12] was > 100 µM. The TGI [13] was > 100 µM, the TGI [15] was > 100 µM and the TGI [16] was > 100 µM. The TGI [17] was > 100 µM, the TGI [19] was > 100 µM and the TGI [20] was > 100 µM. The TGI [21] was > 100 µM, the TGI [22] was > 100 µM and the TGI [23] was > 100 µM. For the same compound, the TGI [24] was > 100 µM, the TGI [25] was > 100 µM and the TGI [26] was > 100 µM. For the same compound, the TGI [28] was > 100 µM, the TGI [29] was > 100 µM and the TGI [30] was > 100 µM. For the same compound, the TGI [31] was > 100 µM, the TGI [32] was > 100 µM and the TGI [33] was > 100 µM. The TGI [34] was > 100 µM, the TGI [36] was > 100 µM and the TGI [37] was > 100 µM. For the same compound, the TGI [38] was 55.6 µM, the TGI [39] was > 100 µM and the TGI [40] was > 100 µM. For the same compound, the TGI [41] was > 100 µM, the TGI [43] was > 100 µM and the TGI [44] was > 100 µM. For the same compound, the TGI [45] was > 100 µM, the TGI [46] was > 100 µM and the TGI [47] was > 100 µM. For the same compound, the TGI [48] was > 100 µM, the TGI [49] was > 100 µM and the TGI [51] was > 100 µM. For the same compound, the TGI [52] was > 100 µM, the TGI [53] was > 100 µM and the TGI [54] was > 100 µM. The TGI [55] was > 100 µM, the TGI [56] was > 100 µM and the TGI [57] was > 100 µM.
With Cc1c(/C=N/NC(=S)Nc2ccccc2)c(=O)n(-c2ccccc2)n1C the TGI [1] was > 100 µM, the TGI [2] was > 100 µM and the TGI [3] was > 100 µM. For the same compound, the TGI [4] was > 100 µM, the TGI [5] was > 100 µM and the TGI [6] was > 100 µM. For the same compound, the TGI [7] was > 100 µM, the TGI [8] was > 100 µM and the TGI [9] was > 100 µM. The TGI [10] was > 100 µM, the TGI [11] was > 100 µM and the TGI [58] was > 100 µM. For the same compound, the TGI [12] was > 100 µM, the TGI [13] was > 100 µM and the TGI [15] was > 100 µM. For the same compound, the TGI [16] was > 100 µM, the TGI [17] was > 100 µM and the TGI [19] was > 100 µM. For the same compound, the TGI [20] was > 100 µM, the TGI [21] was > 100 µM and the TGI [22] was > 100 µM. For the same compound, the TGI [23] was > 100 µM, the TGI [24] was > 100 µM and the TGI [25] was > 100 µM. The TGI [26] was > 100 µM, the TGI [28] was > 100 µM and the TGI [29] was > 100 µM. For the same compound, the TGI [30] was > 100 µM, the TGI [31] was > 100 µM and the TGI [32] was > 100 µM. For the same compound, the TGI [33] was > 100 µM, the TGI [34] was > 100 µM and the TGI [36] was > 100 µM. For the same compound, the TGI [37] was > 100 µM, the TGI [38] was > 100 µM and the TGI [39] was > 100 µM. The TGI [40] was > 100 µM, the TGI [41] was > 100 µM and the TGI [43] was > 100 µM. For the same compound, the TGI [44] was > 100 µM, the TGI [45] was > 100 µM and the TGI [46] was > 100 µM. For the same compound, the TGI [47] was > 100 µM, the TGI [48] was > 100 µM and the TGI [49] was > 100 µM. The TGI [51] was > 100 µM, the TGI [52] was > 100 µM and the TGI [53] was > 100 µM. The TGI [54] was > 100 µM, the TGI [55] was > 100 µM and the TGI [56] was > 100 µM. The TGI [57] was > 100 µM.
